Assay results as given in patent US20090226398A1, “ANTI-VIRAL COMPOUNDS, COMPOSITIONS, AND METHODS OF USE” (Genelabs Technologies, Inc., priority 2008, published 2009).

Test system: HCV replication
Experiment: Replicon Assay (Huh-lucubineo-ET cells, luciferase readout)
Type: cell-based
Details: Hepatitis C virus; ET (Huh-lucubineo-ET) HCV replicon cell line; luciferase activity 48-72 hours after compound addition; 6 dilutions
Summary of the method: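 Huh-lucubineo-ET cells stably carrying a firefly luciferase-ubiquitin-neo/NS3-5B ET replicon (adaptive mutations E1202G, T1280I, K1846T) were plated 24 h before compound, then treated at 5 or 50 μM or six 3-fold dilutions. Luciferase read 48-72 h later; % inhibition vs no-compound control, EC50/TC50 from Hill-equation fit.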

SMILES	EC50 [nM]
Fc1cccc(-c2nc3cnn(Cc4ccc(-c5ccc(OCC6CCOCC6)cc5C(F)(F)F)nn4)cc-3n2)c1F [Compound 320, 2-(2,3-Difluoro-phenyl)-5-{6-[4-(tetrahydro-pyran-4-ylmethoxy)-2-trifluoromethyl-phenyl]-pyridazin-3-ylmethyl}-5H-imidazo[4,5-d]pyridazine]	1710
CC[C@H](C)COc1ccc(-c2ccc(Cn3cc4nc(-c5cccc(F)c5F)nc-4cn3)nn2)c(C(F)(F)F)c1 [Compound 321, 2-(2,3-Difluoro-phenyl)-5-{6-[4-(2-methyl-butoxy)-2-trifluoromethyl-phenyl]-pyridazin-3-ylmethyl}-5H-imidazo[4,5-d]pyridazine]	45
CCOc1ccc(-c2ccc(Cn3cc4nc(-c5ccccc5F)nc-4cn3)cn2)c(C(F)(F)F)c1 [Compound 322, 5-[6-(4-Ethoxy-2-trifluoromethyl-phenyl)-pyridin-3-ylmethyl]-2-(2-fluoro-phenyl)-5H-imidazo[4,5-d]pyridazine]	33
CCCOc1ccc(-c2ccc(Cn3cc4nc(-c5ccccc5F)nc-4cn3)cn2)c(C(F)(F)F)c1 [Compound 323, 2-(2-Fluoro-phenyl)-5-[6-(4-propoxy-2-trifluoromethyl-phenyl)-pyridin-3-ylmethyl]-5H-imidazo[4,5-d]pyridazine]	33
COCCOc1ccc(-c2ccc(Cn3cc4nc(-c5cccc(F)c5F)nc-4cn3)nn2)c(C(F)(F)F)c1 [Compound 324, 2-(2,3-Difluoro-phenyl)-5-{6-[4-(2-methoxy-ethoxy)-2-trifluoromethyl-phenyl]-pyridazin-3-ylmethyl}-5H-imidazo[4,5-d]pyridazine]	65
N#CCOc1ccc(-c2ccc(Cn3cc4nc(-c5cccc(F)c5F)nc-4cn3)nn2)c(C(F)(F)F)c1 [Compound 325, (4-{6-[2-(2,3-Difluoro-phenyl)-imidazo[4,5-d]pyridazin-5-ylmethyl]-pyridazin-3-yl}-3-trifluoromethyl-phenoxy)-acetonitrile]	107
Fc1cccc(-c2nc3cnn(Cc4ccc(-c5ccc(OCC6CCOC6)cc5C(F)(F)F)nn4)cc-3n2)c1F (stereo not drawn) [Compound 326, 2-(2,3-Difluoro-phenyl)-5-{6-[4-(tetrahydro-furan-3-ylmethoxy)-2-trifluoromethyl-phenyl]-pyridazin-3-ylmethyl}-5H-imidazo[4,5-d]pyridazine]	1680
Fc1cccc(-c2nc3cnn(Cc4ccc(-c5ccc(OCC6CC6)cc5C(F)(F)F)nn4)cc-3n2)c1F [Compound 327, 5-[6-(4-Cyclopropylmethoxy-2-trifluoromethyl-phenyl)-pyridazin-3-ylmethyl]-2-(2,3-difluoro-phenyl)-5H-imidazo[4,5-d]pyridazine]	54
CC(C)COc1ccc(-c2ccc(Cn3cc4nc(-c5cccc(F)c5F)nc-4cn3)nn2)c(C(F)(F)F)c1 [Compound 328, 2-(2,3-Difluoro-phenyl)-5-[6-(4-isobutoxy-2-trifluoromethyl-phenyl)-pyridazin-3-ylmethyl]-5H-imidazo[4,5-d]pyridazine]	35
CC(C)CCOc1ccc(-c2ccc(Cn3cc4nc(-c5cccc(F)c5F)nc-4cn3)nn2)c(C(F)(F)F)c1 [Compound 329, 2-(2,3-Difluoro-phenyl)-5-{6-[4-(3-methyl-butoxy)-2-trifluoromethyl-phenyl]-pyridazin-3-ylmethyl}-5H-imidazo[4,5-d]pyridazine]	858
Fc1cccc(-c2nc3cnn(Cc4ccc(-c5ccc(OCCn6ccnc6)cc5C(F)(F)F)nn4)cc-3n2)c1F [Compound 330, 2-(2,3-Difluoro-phenyl)-5-{6-[4-(2-imidazol-1-yl-ethoxy)-2-trifluoromethyl-phenyl]-pyridazin-3-ylmethyl}-5H-imidazo[4,5-d]pyridazine]	≥ 50000
Fc1cccc(-c2nc3cnn(Cc4ccc(-c5ccc(-c6ccccn6)cc5C(F)(F)F)nn4)cc-3n2)c1F [Compound 331, 2-(2,3-Difluoro-phenyl)-5-[6-(4-pyridin-2-yl-2-trifluoromethyl-phenyl)-pyridazin-3-ylmethyl]-5H-imidazo[4,5-d]pyridazine]	≥ 50000
